Laboratory results published in the NIST ThermoML archive (doi:10.1016/j.jct.2011.08.028).
± gives the expanded uncertainty stated by the source.

Legend:
[1] = refractive index (Na D-line) (dimensionless); xn = mol fraction of the nth substance listed; settings: 298.15 K, 101 kPa, Liquid, Standard Abbe refractometry
[2] = xn = mol fraction of the nth substance listed; settings: 298.15 K, 101 kPa, Liquid; for speed of sound: Sing-around technique in a fixed-path interferometer; for mass density: Vibrating tube method
[3] = 298.15 K, 101 kPa, Liquid; for speed of sound: Sing-around technique in a fixed-path interferometer; for mass density: Vibrating tube method
[4] = refractive index (Na D-line) (dimensionless); settings: 298.15 K; 101.33 kPa; Liquid; Standard Abbe refractometry

## CCCn1cc[n+](C)c1.O=S(=O)([N-]S(=O)(=O)C(F)(F)F)C(F)(F)F + CCO
[1]; x2 = 0
  refractive index: 1.42525 ± 0.0007
[1]; x2 = 0.053
  refractive index: 1.42443 ± 0.0007
[1]; x2 = 0.099
  refractive index: 1.42378 ± 0.0007
[1]; x2 = 0.1914
  refractive index: 1.42214 ± 0.0007
[1]; x2 = 0.2948
  refractive index: 1.42008 ± 0.00069
[1]; x2 = 0.3909
  refractive index: 1.41788 ± 0.00069
[1]; x2 = 0.4992
  refractive index: 1.41421 ± 0.00068
[1]; x2 = 0.5912
  refractive index: 1.41045 ± 0.00068
[1]; x2 = 0.6978
  refractive index: 1.4045 ± 0.00068
[1]; x2 = 0.7938
  refractive index: 1.39689 ± 0.00068
[1]; x2 = 0.895
  refractive index: 1.38426 ± 0.00068
[1]; x2 = 0.9431
  refractive index: 1.37524 ± 0.00068
[2]; x2 = 0
  speed of sound: 1232 ± 2 m/s
  mass density: 1474.44 ± 0.65 kg/m3
[2]; x2 = 0.053
  speed of sound: 1230 ± 2 m/s
  mass density: 1465.87 ± 0.6 kg/m3
[2]; x2 = 0.099
  speed of sound: 1227 ± 2 m/s
  mass density: 1458.19 ± 0.56 kg/m3
[2]; x2 = 0.1914
  speed of sound: 1223 ± 2 m/s
  mass density: 1441.04 ± 0.49 kg/m3
[2]; x2 = 0.2948
  speed of sound: 1216 ± 2 m/s
  mass density: 1418.06 ± 0.42 kg/m3
[2]; x2 = 0.3909
  speed of sound: 1209 ± 2 m/s
  mass density: 1391.82 ± 0.37 kg/m3
[2]; x2 = 0.4992
  speed of sound: 1200 ± 2 m/s
  mass density: 1354.59 ± 0.34 kg/m3
[2]; x2 = 0.5912
  speed of sound: 1190 ± 2 m/s
  mass density: 1313.64 ± 0.32 kg/m3
[2]; x2 = 0.6978
  speed of sound: 1176 ± 2 m/s
  mass density: 1249.77 ± 0.28 kg/m3
[2]; x2 = 0.7938
  speed of sound: 1162 ± 2 m/s
  mass density: 1167.28 ± 0.26 kg/m3
[2]; x2 = 0.895
  speed of sound: 1146 ± 2 m/s
  mass density: 1033.88 ± 0.18 kg/m3
[2]; x2 = 0.9431
  speed of sound: 1142 ± 2 m/s
  mass density: 940.65 ± 0.16 kg/m3

## CCCn1cc[n+](C)c1.O=S(=O)([N-]S(=O)(=O)C(F)(F)F)C(F)(F)F + CO
[1]; x2 = 0
  refractive index: 1.42525 ± 0.0007
[1]; x2 = 0.099
  refractive index: 1.4237 ± 0.0007
[1]; x2 = 0.2012
  refractive index: 1.42185 ± 0.00069
[1]; x2 = 0.2973
  refractive index: 1.41964 ± 0.00069
[1]; x2 = 0.4068
  refractive index: 1.41652 ± 0.00069
[1]; x2 = 0.5067
  refractive index: 1.41274 ± 0.00068
[1]; x2 = 0.601
  refractive index: 1.40806 ± 0.00068
[1]; x2 = 0.6936
  refractive index: 1.40193 ± 0.00068
[1]; x2 = 0.7948
  refractive index: 1.39113 ± 0.00068
[1]; x2 = 0.9009
  refractive index: 1.37097 ± 0.00068
[1]; x2 = 0.9499
  refractive index: 1.35417 ± 0.00068
[2]; x2 = 0
  speed of sound: 1232 ± 2 m/s
  mass density: 1474.44 ± 0.65 kg/m3
[2]; x2 = 0.099
  speed of sound: 1228 ± 2 m/s
  mass density: 1463.12 ± 0.56 kg/m3
[2]; x2 = 0.2012
  speed of sound: 1223 ± 2 m/s
  mass density: 1449.69 ± 0.49 kg/m3
[2]; x2 = 0.2973
  speed of sound: 1218 ± 2 m/s
  mass density: 1434.29 ± 0.42 kg/m3
[2]; x2 = 0.4068
  speed of sound: 1211 ± 2 m/s
  mass density: 1411.9 ± 0.36 kg/m3
[2]; x2 = 0.5067
  speed of sound: 1203 ± 2 m/s
  mass density: 1385.1 ± 0.33 kg/m3
[2]; x2 = 0.601
  speed of sound: 1192 ± 2 m/s
  mass density: 1351.31 ± 0.3 kg/m3
[2]; x2 = 0.6936
  speed of sound: 1179 ± 2 m/s
  mass density: 1305.17 ± 0.28 kg/m3
[2]; x2 = 0.7948
  speed of sound: 1159 ± 2 m/s
  mass density: 1228.8 ± 0.26 kg/m3
[2]; x2 = 0.9009
  speed of sound: 1129 ± 2 m/s
  mass density: 1085.51 ± 0.18 kg/m3
[2]; x2 = 0.9499
  speed of sound: 1115 ± 2 m/s
  mass density: 972.1 ± 0.17 kg/m3

## CCO [ethanol]
[3]
  speed of sound: 1144 ± 2 m/s
  mass density: 785.33 ± 0.12 kg/m3
[4]
  refractive index: 1.35929 ± 0.00068

## CCO [ethanol] + CCCn1cc[n+](C)c1.O=S(=O)([N-]S(=O)(=O)C(F)(F)F)C(F)(F)F
[1]; x1 = 1
  refractive index: 1.35929 ± 0.00068
[2]; x1 = 1
  speed of sound: 1144 ± 2 m/s
  mass density: 785.33 ± 0.12 kg/m3

## CO [methanol]
[3]
  speed of sound: 1103 ± 2 m/s
  mass density: 786.59 ± 0.12 kg/m3
[4]
  refractive index: 1.32648 ± 0.00068

## CO [methanol] + CCCn1cc[n+](C)c1.O=S(=O)([N-]S(=O)(=O)C(F)(F)F)C(F)(F)F
[1]; x1 = 1
  refractive index: 1.32648 ± 0.00068
[2]; x1 = 1
  speed of sound: 1103 ± 2 m/s
  mass density: 786.59 ± 0.12 kg/m3

## CCCO [propan-1-ol]
[3]
  speed of sound: 1207 ± 2 m/s
  mass density: 800.09 ± 0.12 kg/m3
[4]
  refractive index: 1.38307 ± 0.00068

## CCCO [propan-1-ol] + CCCn1cc[n+](C)c1.O=S(=O)([N-]S(=O)(=O)C(F)(F)F)C(F)(F)F
[1]; x1 = 1
  refractive index: 1.38307 ± 0.00068
[2]; x1 = 1
  speed of sound: 1207 ± 2 m/s
  mass density: 800.09 ± 0.12 kg/m3

## CC(C)O [propan-2-ol]
[3]
  speed of sound: 1139 ± 2 m/s
  mass density: 780.98 ± 0.13 kg/m3
[4]
  refractive index: 1.375 ± 0.00068

## CC(C)O [propan-2-ol] + CCCn1cc[n+](C)c1.O=S(=O)([N-]S(=O)(=O)C(F)(F)F)C(F)(F)F
[1]; x1 = 1
  refractive index: 1.375 ± 0.00068
[2]; x1 = 1
  speed of sound: 1139 ± 2 m/s
  mass density: 780.98 ± 0.13 kg/m3
